Measurements taken from ChEMBL document CHEMBL3885861, “Open TG-GATES”.

Species on record: Rattus norvegicus
Assay: Open TG-GATES - Regimen: Single
Assay type: toxicity, organism-based, Sprague-Dawley
Design: regimen Single, gender Male, age 6 weeks
Conditions: in vivo, po, 10 mg/kg, route gavage, dose level Middle; for APTT / Bas / Eos / Fbg / Hb / Ht / Lym / MCH / MCHC / MCV / Mono / Neu / PT / Plat / RBC / Ret / WBC: tissue Blood; for KIDNEY_L / KIDNEY_R / KIDNEY_TOTAL: tissue Kidney; for LIVER: tissue Liver; for A/G / ALP / ALT / AST / BUN / CRE / Ca / Cl / DBIL / GLC / IP / K / LDH / Na / PL / RALB / TBIL / TC / TG / TP / gamma-GTP: tissue Plasma

Cn1cnc([N+](=O)[O-])c1Sc1ncnc2nc[nH]c12 [AZATHIOPRINE] showed a TERMINAL_BW (3 h) of 192.8 g, an APTT (3 h) of 22.9 s and a Bas (3 h) of 0%. For the same molecule, the Eos (3 h) was 0.8%, the Fbg (3 h) was 277.6 mg/dL and the Hb (3 h) was 13.1 g/dL. It also gave a Ht (3 h) of 39.1%, a Lym (3 h) of 77.8% and an MCH (3 h) of 21.6 pg. It also gave an MCHC (3 h) of 33.7%, an MCV (3 h) of 64.2 fL and a Mono (3 h) of 2.2%. The Neu (3 h) was 18%, the PT (3 h) was 15.7 s and the Plat (3 h) was 117.8 x10_4/uL. It also gave an RBC (3 h) of 609.8 x10_4/ul, a Ret (3 h) of 9.7% and a WBC (3 h) of 65 x10_2/uL. For the same molecule, the KIDNEY_L (3 h) was 0.9 g, the KIDNEY_R (3 h) was 0.9 g and the KIDNEY_TOTAL (3 h) was 1.7 g. It also gave an LIVER (3 h) of 8.5 g, an A/G (3 h) of 1.1 and an ALP (3 h) of 1723.6 IU/L. It also gave an ALT (3 h) of 47.6 IU/L, an AST (3 h) of 78 IU/L and a BUN (3 h) of 11.4 mg/dL. The CRE (3 h) was 0.2 mg/dL, the Ca (3 h) was 10.6 mg/dL and the Cl (3 h) was 105.6 meq/L. For the same molecule, the DBIL (3 h) was 0.006 mg/dL, the GLC (3 h) was 189.4 mg/dL and the IP (3 h) was 9.1 mg/dL. For the same molecule, the K (3 h) was 4.1 meq/L, the LDH (3 h) was 211.4 IU/L and the Na (3 h) was 141.8 meq/L. The PL (3 h) was 133.2 mg/dL, the RALB (3 h) was 2.9 g/dL and the TBIL (3 h) was 0.008 mg/dL. For the same molecule, the TC (3 h) was 77 mg/dL, the TG (3 h) was 57.6 mg/dL and the TP (3 h) was 5.5 g/dL. For the same molecule, the gamma-GTP (3 h) was 1 IU/L, the TERMINAL_BW (6 h) was 189.2 g and the APTT (6 h) was 21.4 s. For the same molecule, the Bas (6 h) was 0%, the Eos (6 h) was 1% and the Fbg (6 h) was 308.4 mg/dL. It also gave a Hb (6 h) of 12.8 g/dL, a Ht (6 h) of 39% and a Lym (6 h) of 72%. It also gave an MCH (6 h) of 21.4 pg, an MCHC (6 h) of 32.9% and an MCV (6 h) of 65.2 fL. It also gave a Mono (6 h) of 2.8%, a Neu (6 h) of 22.8% and a PT (6 h) of 15.6 s. For the same molecule, the Plat (6 h) was 124.6 x10_4/uL, the RBC (6 h) was 598.6 x10_4/ul and the Ret (6 h) was 9.2%. It also gave a WBC (6 h) of 73.6 x10_2/uL, a KIDNEY_L (6 h) of 0.9 g and a KIDNEY_R (6 h) of 0.9 g. For the same molecule, the KIDNEY_TOTAL (6 h) was 1.8 g, the LIVER (6 h) was 8.1 g and the A/G (6 h) was 1.2. For the same molecule, the ALP (6 h) was 1521.2 IU/L, the ALT (6 h) was 41.8 IU/L and the AST (6 h) was 70.6 IU/L. For the same molecule, the BUN (6 h) was 8.8 mg/dL, the CRE (6 h) was 0.1 mg/dL and the Ca (6 h) was 10.5 mg/dL. For the same molecule, the Cl (6 h) was 107.2 meq/L, the DBIL (6 h) was 0.004 mg/dL and the GLC (6 h) was 175.4 mg/dL. It also gave an IP (6 h) of 9.1 mg/dL, a K (6 h) of 4.6 meq/L and an LDH (6 h) of 249.2 IU/L. It also gave a Na (6 h) of 140.8 meq/L, a PL (6 h) of 120.6 mg/dL and an RALB (6 h) of 2.9 g/dL. The TBIL (6 h) was 0.01 mg/dL, the TC (6 h) was 72.6 mg/dL and the TG (6 h) was 50.4 mg/dL. The TP (6 h) was 5.4 g/dL, the gamma-GTP (6 h) was 1 IU/L and the TERMINAL_BW (9 h) was 183.9 g. It also gave an APTT (9 h) of 22.4 s, a Bas (9 h) of 0% and an Eos (9 h) of 1%. It also gave a Fbg (9 h) of 304.8 mg/dL, a Hb (9 h) of 12.9 g/dL and a Ht (9 h) of 38.9%. The Lym (9 h) was 74.8%, the MCH (9 h) was 21.8 pg and the MCHC (9 h) was 33.2%. For the same molecule, the MCV (9 h) was 65.6 fL, the Mono (9 h) was 2.4% and the Neu (9 h) was 20.6%. The PT (9 h) was 15.3 s, the Plat (9 h) was 114.2 x10_4/uL and the RBC (9 h) was 592.2 x10_4/ul. It also gave a Ret (9 h) of 9%, a WBC (9 h) of 83.3 x10_2/uL and a KIDNEY_L (9 h) of 0.9 g. For the same molecule, the KIDNEY_R (9 h) was 0.9 g, the KIDNEY_TOTAL (9 h) was 1.7 g and the LIVER (9 h) was 7.7 g. The A/G (9 h) was 1.2, the ALP (9 h) was 1473.8 IU/L and the ALT (9 h) was 32.4 IU/L. The AST (9 h) was 64.8 IU/L, the BUN (9 h) was 10 mg/dL and the CRE (9 h) was 0.1 mg/dL. It also gave a Ca (9 h) of 10.4 mg/dL, a Cl (9 h) of 106.6 meq/L and a DBIL (9 h) of 0 mg/dL. The GLC (9 h) was 186 mg/dL, the IP (9 h) was 9.6 mg/dL and the K (9 h) was 4.2 meq/L. The LDH (9 h) was 223.2 IU/L, the Na (9 h) was 141 meq/L and the PL (9 h) was 145 mg/dL. For the same molecule, the RALB (9 h) was 3.1 g/dL, the TBIL (9 h) was 0.012 mg/dL and the TC (9 h) was 85.2 mg/dL. For the same molecule, the TG (9 h) was 47 mg/dL, the TP (9 h) was 5.6 g/dL and the gamma-GTP (9 h) was 1 IU/L. The TERMINAL_BW (24 h) was 199.9 g, the APTT (24 h) was 20.9 s and the Bas (24 h) was 0%. It also gave an Eos (24 h) of 1%, a Fbg (24 h) of 309 mg/dL and a Hb (24 h) of 13.4 g/dL. The Ht (24 h) was 39.3%, the Lym (24 h) was 81.6% and the MCH (24 h) was 21.7 pg. The MCHC (24 h) was 34.1%, the MCV (24 h) was 63.9 fL and the Mono (24 h) was 2%. It also gave a Neu (24 h) of 14.4%, a PT (24 h) of 15.4 s and a Plat (24 h) of 120.4 x10_4/uL. For the same molecule, the RBC (24 h) was 616.2 x10_4/ul, the Ret (24 h) was 7.9% and the WBC (24 h) was 54.7 x10_2/uL. It also gave a KIDNEY_L (24 h) of 0.9 g, a KIDNEY_R (24 h) of 0.9 g and a KIDNEY_TOTAL (24 h) of 1.8 g. The LIVER (24 h) was 9.2 g, the A/G (24 h) was 1.3 and the ALP (24 h) was 1643.2 IU/L. It also gave an ALT (24 h) of 40.2 IU/L, an AST (24 h) of 71.4 IU/L and a BUN (24 h) of 15.4 mg/dL. For the same molecule, the CRE (24 h) was 0.1 mg/dL, the Ca (24 h) was 10.8 mg/dL and the Cl (24 h) was 106.8 meq/L. It also gave a DBIL (24 h) of 0.002 mg/dL, a GLC (24 h) of 190.6 mg/dL and an IP (24 h) of 7.6 mg/dL. The K (24 h) was 4.1 meq/L, the LDH (24 h) was 203.8 IU/L and the Na (24 h) was 143 meq/L. It also gave a PL (24 h) of 160.2 mg/dL, an RALB (24 h) of 3.1 g/dL and a TBIL (24 h) of 0.006 mg/dL. The TC (24 h) was 90 mg/dL, the TG (24 h) was 82.6 mg/dL and the TP (24 h) was 5.6 g/dL. It also gave a gamma-GTP (24 h) of 1 IU/L.
